Measurements published in ChEMBL document CHEMBL2311252, “Cytosporone S with antimicrobial activity, isolated from the fungus Trichoderma sp. FKI-6626” (2013).
Values after ≈ are worked out from the molar mass of the structure shown.

Tests used:
[1] = test system: Klebsiella pneumoniae; assay: Antibacterial activity against Klebsiella pneumoniae KB214 ATCC 10031 by agar dilution method; format: functional
[2] = test system: Aspergillus niger; assay: Antifungal activity against Aspergillus niger KF104 ATCC 9643 by agar dilution method; format: functional
[3] = test system: Escherichia coli; assay: Antibacterial activity against Escherichia coli KB213 NIHJ by agar dilution method; format: functional
[4] = test system: Serratia marcescens; assay: Antibacterial activity against Serratia marcescens KB215 IAM1021 by agar dilution method; format: functional
[5] = test system: Staphylococcus epidermidis; assay: Antibacterial activity against Staphylococcus epidermidis KB352 NBRC12993 by agar dilution method; format: functional
[6] = test system: Pseudomonas aeruginosa; assay: Antibacterial activity against Pseudomonas aeruginosa KB359 NBRC12582 by agar dilution method; format: functional
[7] = test system: Saccharomyces cerevisiae; assay: Antifungal activity against Saccharomyces cerevisiae KF26 by agar dilution method; format: functional
[8] = test system: Kocuria rhizophila; assay: Antibacterial activity against Kocuria rhizophila KB354 NBRC12708 by agar dilution method; format: functional
[9] = test system: Mycolicibacterium smegmatis; assay: Antibacterial activity against Mycobacterium smegmatis KB42 ATCC 607 by agar dilution method; format: functional
[10] = test system: Staphylococcus aureus; assay: Antibacterial activity against Staphylococcus aureus KB349 MRSA K24 by agar dilution method; format: functional
[11] = test system: Bacillus cereus; assay: Antibacterial activity against Bacillus cereus KB143 NBRC3001 by agar dilution method; format: functional
[12] = test system: Mucor racemosus; assay: Antifungal activity against Mucor racemosus KF223 NBRC4581 by agar dilution method; format: functional
[13] = test system: Comamonas terrigena; assay: Antibacterial activity against Comamonas terrigena KB358 NBRC13299 by agar dilution method; format: functional
[14] = test system: Salmonella typhimurium; assay: Antibacterial activity against Salmonella typhimurium KB20 by agar dilution method; format: functional, Salmonella enterica subsp. enterica serovar Typhimurium; conditions: Salmonella enterica
[15] = test system: Escherichia coli; assay: Antibacterial activity against Escherichia coli KB176 NIHJ JC-2 by agar dilution method; format: functional
[16] = test system: Bacillus subtilis; assay: Antibacterial activity against Bacillus subtilis KB355 NBRC3134 by agar dilution method; format: functional
[17] = test system: Aspergillus oryzae; assay: Antifungal activity against Aspergillus oryzae KF439 by agar dilution method; format: functional
[18] = test system: Staphylococcus aureus; assay: Antibacterial activity against Staphylococcus aureus KB210 ATCC 6538p by agar dilution method; format: functional
[19] = test system: Proteus vulgaris; assay: Antibacterial activity against Proteus vulgaris KB127 IF03167 by agar dilution method; format: functional
[20] = test system: Proteus mirabilis; assay: Antibacterial activity against Proteus mirabilis KB125 NBRC3849 by agar dilution method; format: functional
[21] = test system: Staphylococcus aureus; assay: Antibacterial activity against Staphylococcus aureus KB335 JCM2151 by agar dilution method; format: functional
[22] = test system: Candida albicans; assay: Antifungal activity against Candida albicans KF1 by agar dilution method; format: functional
[23] = test system: Kocuria rhizophila; assay: Antibacterial activity against Kocuria rhizophila KB212 ATCC 9341 by agar dilution method; format: functional
[24] = test system: Micrococcus luteus; assay: Antibacterial activity against Micrococcus luteus KB453 NBRC13867 by agar dilution method; format: functional
[25] = test system: Bacillus subtilis; assay: Antibacterial activity against Bacillus subtilis KB340 JCM1465 by agar dilution method; format: functional
[26] = test system: Escherichia coli; assay: Antibacterial activity against Escherichia coli KB336 JCM5491 by agar dilution method; format: functional
[27] = test system: Pseudomonas aeruginosa; assay: Antibacterial activity against Pseudomonas aeruginosa KB115 NBRC3080 by agar dilution method; format: functional
[28] = test system: Bacillus subtilis; assay: Antibacterial activity against Bacillus subtilis KB211 ATCC 6633 by agar dilution method; format: functional
[29] = test system: Klebsiella pneumoniae; assay: Antibacterial activity against Klebsiella pneumoniae KB357 NBRC357 by agar dilution method; format: functional

## CCCCCC1OC(=O)Cc2cc(OC)c(O)c(O)c21 (racemic)
[1]
  MIC: > 100 µg/mL
[2]
  MIC: 50 µg/mL (≈ 178 µM)
[3]
  MIC: 100 µg/mL (≈ 357 µM)
[4]
  MIC: > 100 µg/mL
[5]
  MIC: 50 µg/mL (≈ 178 µM)
[6]
  MIC: 100 µg/mL (≈ 357 µM)
[7]
  MIC: 12.5 µg/mL (≈ 44.6 µM)
[8]
  MIC: 50 µg/mL (≈ 178 µM)
[9]
  MIC: 50 µg/mL (≈ 178 µM)
[10]
  MIC: 50 µg/mL (≈ 178 µM)
[11]
  MIC: 50 µg/mL (≈ 178 µM)
[12]
  MIC: 100 µg/mL (≈ 357 µM)
[13]
  MIC: 50 µg/mL (≈ 178 µM)
[14]
  MIC: > 100 µg/mL
[15]
  MIC: > 100 µg/mL
[16]
  MIC: 50 µg/mL (≈ 178 µM)
[17]
  MIC: 50 µg/mL (≈ 178 µM)
[18]
  MIC: 50 µg/mL (≈ 178 µM)
[19]
  MIC: 50 µg/mL (≈ 178 µM)
[20]
  MIC: 100 µg/mL (≈ 357 µM)
[21]
  MIC: 50 µg/mL (≈ 178 µM)
[22]
  MIC: 25 µg/mL (≈ 89.2 µM)
[23]
  MIC: 50 µg/mL (≈ 178 µM)
[24]
  MIC: 50 µg/mL (≈ 178 µM)
[25]
  MIC: 50 µg/mL (≈ 178 µM)
[26]
  MIC: > 100 µg/mL
[27]
  MIC: 100 µg/mL (≈ 357 µM)
[28]
  MIC: 100 µg/mL (≈ 357 µM)
[29]
  MIC: > 100 µg/mL
